# Laboratory results taken from patent publication US20240116910A1, “Heterocycles as WIP1 Inhibitors” (PMV Pharmaceuticals, Inc., priority 2022, published 2024).
# How the values were obtained:
# [1] = target: recombinant His-tag Wip1(2-420) protein (amino acids #2-420) (Homo sapiens (Human), UniProt O15297); test: Wip1(2-420) phosphatase enzyme FDP assay; type: biochemical; details: fluorescein diphosphate (FDP) substrate, RT 2 hours, fluorescence Ex485/Em535; read-out: WIP1 (Truncated 2-420) FDP Assay: IC50
# [2] = target: recombinant His-tag Wip1 full length protein (amino acids #1-605) (Homo sapiens (Human), UniProt O15297); test: Wip1 full length phosphatase enzyme FDP assay; type: biochemical; details: fluorescein diphosphate (FDP) substrate, RT 2 hours, fluorescence Ex485/Em535
# Description: The Human Wip1 (2-420, aa 2-420) or Wip1 full length (aa 1-605) DNA sequence was codon optimized and synthesized by Genscript for insect cell expression. The open reading frame of Wip1(2-420) with a N-terminal-His6 affinity tag followed by a TEV cleavage site was subcloned sites into the pFastBac1 expression vector. The recombinant bacmid DNA was transfected in Sf9 insect cells for baculovirus production. After 72 hours infection, the Sf9 cells were harvested by centrifugation and resuspended in lysis buffer containing 50 mM Tris/HCl, pH 8.0, 500 mM NaCl, 20% glycerol, Benzonase 0.5% CHAPS and Roche cOmplete™ EDTA free protease inhibitors. Cells were disrupted with microfluidizer and the debris was removed by centrifugation at 185,000 g for 1 hour. The supernatant was subjected to HisTrap FF for affinity purification. Proteins were eluted with a linear gradient of 0-500 mM imidazole in HisTrap buffer containing 50 mM Tris/HCl, pH 8.0, 500 mM NaCl and 20% glycerol, 0.05% CHAPS. The eluted protein was dialyzed against dialysis buffer (20 mM MES, 100 mM NaCl, 20% glycerol, 0.5 mM TCEP, 0.05% CHAPS) followed purification via HiTrap SP HP column. The protein was eluted with a gradient of 100 mM-2 M NaCl in dialysis buffer. His6-[…] was finally concentrated and loaded onto a size-exclusion column (NiLoad 16/600 Superdex 200 pg, GE Healthcare) pre-equilibrated with 50 mM MOPS (pH 7.5), 200 mM NaCl, 20% glycerol, 1 mM TCEP, 0.05% CHAPS and 0.1 mM EGTA. The peak fractions containing purified Nis6-Wip1(2-420) were pooled and concentrated to 1.0 mg/mL and flash frozen at −80° C.
# Wip1 Length and Wip1(2-420) Phosphatase Enzyme FDP Assays.
# Test compounds (252 mM stock in DMSO) were diluted 3 folds in series in DMSO and 1.2 μl per well were added into 384-well polypropylene black plates (Nunc). Twelve μl per well of Assay Buffer (100 mM NaCl, 50 mM MOPS, pH 7.5, 0.8 mM CHAPS, 0.1 mM EGTA, 30 mM MgCl2, 0.3 mM TCEP, 0.2 mg/mL BSA) was added followed by […] per well of 50.4 nM recombinant His-tag Wip1 full length protein (amino acids #1-605) or recombinant His-tag Wip1(2-420) protein (amino acids #2-420) in Assay Buffer and the plate was incubated at RT (22° C.) for 5 min. Ten mM of fluorescein diphosphate (FDP) in DMSO was diluted to […] in Assay Buffer and […] per well was added to the plate and incubated at RT (22° C.) for 2 hours. […] per well of 64.1 mM EDTA in water were added to stop the enzyme reaction. The plate was centrifuged at 1,200 rpm (Eppendorf 5810R Plate centrifuge) for 1 minute and fluorescence intensity (Ex485/Em535) was measured on Perkin Elmer Victor Reader. EC50 values were calculated using either Prism (GraphPad) or ActivityBase software (IDBS), The IC50 results are provided in Table M.
# Chain of recombinant His-tag Wip1(2-420) protein (amino acids #2-420) (O15297 2-420): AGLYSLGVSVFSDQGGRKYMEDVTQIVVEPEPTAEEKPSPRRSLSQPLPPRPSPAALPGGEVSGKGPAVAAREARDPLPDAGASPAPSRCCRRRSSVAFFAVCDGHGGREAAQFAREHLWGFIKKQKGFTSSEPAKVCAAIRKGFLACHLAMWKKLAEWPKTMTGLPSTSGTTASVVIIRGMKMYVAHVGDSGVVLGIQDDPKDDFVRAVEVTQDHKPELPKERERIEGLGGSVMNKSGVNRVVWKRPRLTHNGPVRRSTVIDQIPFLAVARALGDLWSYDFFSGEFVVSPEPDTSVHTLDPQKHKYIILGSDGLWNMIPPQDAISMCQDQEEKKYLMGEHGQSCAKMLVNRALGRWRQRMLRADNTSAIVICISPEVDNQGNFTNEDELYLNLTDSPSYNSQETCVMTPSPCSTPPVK
# Chain of recombinant His-tag Wip1 full length protein (amino acids #1-605) (O15297 whole entry, the tested form may be a part): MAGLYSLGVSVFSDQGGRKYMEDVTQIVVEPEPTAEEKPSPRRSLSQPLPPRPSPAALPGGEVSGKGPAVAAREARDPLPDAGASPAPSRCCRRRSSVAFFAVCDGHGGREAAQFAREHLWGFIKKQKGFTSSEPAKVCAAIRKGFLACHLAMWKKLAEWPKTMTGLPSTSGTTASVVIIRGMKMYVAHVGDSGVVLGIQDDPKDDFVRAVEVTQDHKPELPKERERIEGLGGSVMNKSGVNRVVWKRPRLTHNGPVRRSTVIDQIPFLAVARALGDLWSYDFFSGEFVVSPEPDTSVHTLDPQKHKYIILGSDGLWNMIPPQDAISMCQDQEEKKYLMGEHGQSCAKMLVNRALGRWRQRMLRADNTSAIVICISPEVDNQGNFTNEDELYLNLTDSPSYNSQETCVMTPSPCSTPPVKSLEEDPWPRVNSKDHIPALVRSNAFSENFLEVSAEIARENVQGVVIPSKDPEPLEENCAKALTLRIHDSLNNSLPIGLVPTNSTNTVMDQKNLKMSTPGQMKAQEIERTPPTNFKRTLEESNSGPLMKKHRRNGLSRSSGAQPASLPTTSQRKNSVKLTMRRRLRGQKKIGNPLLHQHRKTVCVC
IC50 [1] [nM],IC50 [2] [nM],SMILES
6,9,"C[C@@H](Nc1cccc(Cl)c1)c1ccc(C(=O)N[C@@H](CC2CCCC2)C(=O)NC2CC2)s1 [Compound 1, 5-[1-(3-chloroanilino)ethyl]-N-[(1S)-1-(cyclopentylmethyl)-2-(cyclopropylamino)-2-oxo-ethyl]thiophene-2-carboxamide]"
232,117,"C[C@H](Nc1cccc(Cl)c1)c1ccc(C(=O)N[C@@H](CC2CCCC2)C(=O)NC2CC2)s1 [Compound 2, 5-[(1S)-1-(3-chloroanilino)ethyl]-N-[(1S)-1-(cyclopentylmethyl)-2-(cyclopropylamino)-2-oxo-ethyl]thiophene-2-carboxamide]"
60,28,"CC(Nc1ccc(F)c(Cl)c1)c1ccc(C(=O)N[C@@H](CC2CCCC2)C(=O)NC2CC2)s1 (stereo partly drawn) [Compound 3, 5-[1-(3-chloro-4-fluoro-anilino)ethyl]-N-[(1S)-1-(cyclopentylmethyl)-2-(cyclopropylamino)-2-oxo-ethyl]thiophene-2-carboxamide]"
79,15,"CC(Nc1cccc(Cl)c1)c1ccc(C(=O)N[C@@H](CC2CCCC2)C(=O)NC2CC2)s1 (stereo partly drawn) [Compound 4, 5-[1-(3-chloroanilino)ethyl]-N-[(1S)-1-(cyclopentylmethyl)-2-(cyclopropylamino)-2-oxo-ethyl]thiophene-2-carboxamide]"
6,9,"C[C@H](Nc1ccc(F)c(Cl)c1)c1ccc(C(=O)N[C@@H](CC2CCCC2)C(=O)NC2CC2)s1 [Compound 6, 5-[(1S)-1-(3-chloro-4-fluoro-anilino)ethyl]-N-[(1S)-1-(cyclopentylmethyl)-2-(cyclopropylamino)-2-oxo-ethyl]thiophene-2-carboxamide]"
80,68,"C[C@@H](Nc1ccc(F)c(Cl)c1)c1ccc(C(=O)N[C@@H](CC2CCCC2)C(=O)NC2CC2)s1 [Compound 7, 5-[(1R)-1-(3-chloro-4-fluoro-anilino)ethyl]-N-[(1S)-1-(cyclopentylmethyl)-2-(cyclopropylamino)-2-oxo-ethyl]thiophene-2-carboxamide]"

# More lines, now with the values behind:
SMILES,IC50 [1] [nM],IC50 [2] [nM]
"Cc1ncc(Cl)cc1NC(C)c1ccc(C(=O)N[C@@H](CC2CCCC2)C(=O)NC2CC2)s1 (stereo partly drawn) [Compound 5, 5-[1-[(5-chloro-2-methyl-3-pyridyl)amino]ethyl]-N-[(1S)-1-(cyclopentylmethyl)-2-(cyclopropylamino)-2-oxo-ethyl]thiophene-2-carboxamide]",13,24
"Cc1ncc(Cl)cc1N[C@@H](C)c1ccc(C(=O)N[C@@H](CC2CCCC2)C(=O)NC2CC2)s1 [Compound 8, 5-[(1S)-1-[(5-chloro-2-methyl-3-pyridyl)amino]ethyl]-N-[(1S)-1-(cyclopentylmethyl)-2-(cyclopropylamino)-2-oxo-ethyl]thiophene-2-carboxamide]",8,11
"Cc1ncc(Cl)cc1NC(C)c1ccc(C(=O)N[C@@H](CC2CCCC2)C(=O)NC23CC(C2)C3)s1 (stereo partly drawn) [Compound 10, N-[(1S)-2-(1-bicyclo [1.1.1]pentanylamino)-1-(cyclopentylmethyl)-2-oxo-ethyl]-5-[1-[(5-chloro-2-methyl-3-pyridyl)amino]ethyl]thiophene-2-carboxamide]",10,18
"Cc1ncc(Cl)cc1N[C@@H](C)c1ccc(C(=O)N[C@@H](CC2CCCC2)C(=O)NC23CC(C2)C3)s1 [Compound 11, (2S)-N-{bicyclo[1.1.1]pentan-1-yl}-2-({5-[(1S)-1-[(5-chloro-2-methylpyridin-3-yl)amino]ethyl]thiophen-2-yl}formamido)-3-cyclopentylpropanamide]",6,9
"Cc1ncc(Cl)cc1N[C@H](C)c1ccc(C(=O)N[C@@H](CC2CCCC2)C(=O)NC23CC(C2)C3)s1 [Compound 12, (2S)-N-{bicyclo[1.1.1]pentan-1-yl}-2-({5-[(1R)-1-[(5-chloro-2-methylpyridin-3-yl)amino]ethyl]thiophen-2-yl}formamido)-3-cyclopentylpropanamide]",148,356
"Cc1ncc(Cl)cc1NC(C)c1ccc(C(=O)N[C@@H](CC2CCCC2)C(=O)NC2CC2(F)F)s1 (stereo partly drawn) [Compound 13, (2S)-2-[(5-{1-[(5-chloro-2-methylpyridin-3-yl)amino]ethyl}thiophen-2-yl)formamido]-3-cyclopentyl-N-(2,2-difluorocyclopropyl)propanamide]",10,11
"Cc1ncc(Cl)cc1N[C@@H](C)c1ccc(C(=O)N[C@@H](CC2CCCC2)C(=O)NC2CC2(F)F)s1 (stereo partly drawn) [Compound 14, (2S)-2-({5-[(1S)-1-[(5-chloro-2-methylpyridin-3-yl)amino]ethyl]thiophen-2-yl}formamido)-3-cyclopentyl-N-(2,2-difluorocyclopropyl)propanamide]",7,6
"Cc1ncc(Cl)cc1N[C@H](C)c1ccc(C(=O)N[C@@H](CC2CCCC2)C(=O)NC2CC2(F)F)s1 (stereo partly drawn) [Compound 15, (2S)-2-({5-[(1R)-1-[(5-chloro-2-methylpyridin-3-yl)amino]ethyl]thiophen-2-yl}formamido)-3-cyclopentyl-N-(2,2-difluorocyclopropyl)propanamide]",80,71
"Cc1ncc(Cl)cc1N[C@@H](C)c1ccc(C(=O)N[C@@H](CC2CCCC2)C(=O)NC23CC(F)(C2)C3)s1 [Compound 16, (2S)-2-({5-[(1S)-1-[(5-chloro-2-methylpyridin-3-yl)amino]ethyl]thiophen-2-yl}formamido)-3-cyclopentyl-N-{3-fluorobicyclo[1.1.1]pentan-1-yl}propanamide]",7,10
"Cc1ncc(Cl)cc1N[C@@H](C)c1ccc(C(=O)N[C@@H](CC2CCCC2)C(=O)NC23CC(C)(C2)C3)s1 [Compound 17, (2S)-2-({5-[(1S)-1-[(5-chloro-2-methylpyridin-3-yl)amino]ethyl]thiophen-2-yl}formamido)-3-cyclopentyl-N-{3-methylbicyclo[1.1.1]pentan-1-yl}propanamide]",7,6
"Cc1ncc(Cl)cc1N[C@@H](C)c1ccc(C(=O)N[C@@H](CC2CCCC2)C(=O)Nc2ccc(F)cc2)s1 [Compound 18, (2S)-2-({5-[(1S)-1-[(5-chloro-2-methylpyridin-3-yl)amino]ethyl]thiophen-2-yl}formamido)-3-cyclopentyl-N-(4-fluorophenyl)propanamide]",7,8
"COC(=O)C12CC(NC(=O)[C@H](CC3CCCC3)NC(=O)c3ccc([C@H](C)Nc4cc(Cl)cnc4C)s3)(C1)C2 [Compound 19, methyl 3-[(2S)-2-({5-[(1S)-1-[(5-chloro-2-methylpyridin-3-yl)amino]ethyl]thiophen-2-yl}formamido)-3-cyclopentylpropanamido]bicyclo[1.1.1]pentane-1-carboxylate]",11,13
"Cc1ncc(Cl)cc1N[C@@H](C)c1ccc(C(=O)N[C@@H](CC2CCCC2)C(=O)NC23CC(O)(C2)C3)s1 [Compound 20, (2S)-2-({5-[(1S)-1-[(5-chloro-2-methylpyridin-3-yl)amino]ethyl]thiophen-2-yl}formamido)-3-cyclopentyl-N-{3-hydroxybicyclo[1.1.1]pentan-1-yl}propanamide]",8,10
